# Measurements reported in patent US20100221241A1, “C[…] ENVELOPE-BASED IMMUNOGEN THAT SIMU[…] RECEPTOR AND […] SITES” (UNIVERSITY OF MARYLAND BIOTECHNOLOGY INSTITUTE, priority 2005, published 2010).
# No end group written: not given here.
# How the values were obtained:
# [1] = test system: HIV; settings: compared with monomeric CD4M9; used with surface HIV virion; cited from earlier work
# [2] = test system: trimers (soluble gp120 trimer); test: Surface Plasmon Resonance binding to trimers; design: species or system HIV; settings: compared with monomeric CD4M9
# Source text: Recently, the X-ray crystal structure of free gp120 was solved (1) and along with X-ray tomography images of envelope spikes (3), used to build a computational model of the envelope trimer (1). […] The line between the binding sites is a “ruler” divided into 1 nm units, which was used to estimate distances between binding sites.
substance,measurement,setting,value
bi-CD4M9-MS: bivalent polypeptide containing two CD4M9 moieties separated by polyethylene glycol linker placing the binding residues 5.2 nm apart (CNLATCQLTCKSLGLLGKCAGSFCACGP; cysteine pairing not given here; also: bivalent: two CD4M9 moieties joined by a polyethylene glycol linker),HIV inhibition,[1],more potent HIV inhibition than monomeric CD4M9
same,forward rate constant for binding,[2],significantly different from monomeric CD4M9
